Common to all, as to test: microbe, parasite or virus in culture
Common to all, as to format: cell-based, Mycobacterium tuberculosis

For test [1], the system named is rifampin (RMP)-resistant Mtb (SRI 1367). As to conditions: for MIC: Mycobacterium tuberculosis, 168 h, read-out: MIC RMP-R, broth microdilution, 7 days at 37 °C. Background: In broth dilution the organism is exposed to a series of concentrations in liquid medium.
Test [2] relates to isoniazid (INH)-resistant Mtb (SRI 1369). Particulars: for MIC: Mycobacterium tuberculosis, 168 h, read-out: MIC INH-R, broth microdilution, 7 days at 37 °C.
Test [3] deals with ofloxacin (OFX)-resistant Mtb (SRI 4000). As to conditions: for MIC: Mycobacterium tuberculosis, 168 h, read-out: MIC OFX-R, broth microdilution, 7 days at 37 °C; for MIC OFX-R: broth microdilution, 7 days at 37 °C.
Setting [4] is: broth microdilution, 7 days at 37 °C.

The structures appear in SMILES notation. Converted amounts (≈) assume the structure as drawn.

As to `NNC(=O)c1ccncc1` [INH, Isoniazid, reference compound], the MIC in test [1] turned out to be 0.15 µM (≈ 0.0206 µg/mL).
Take `Cc1cn(CC2CN(c3ccc(N4CCN(C(=O)CNC(=O)c5ccc([N+](=O)[O-])o5)CC4)c(F)c3)C(=O)O2)nn1` (stereo not drawn) [PH-145]: the MIC in test [2] was in the range of 0.056 to 0.11 µM (≈ 0.0312 to 0.0612 µg/mL); in test [1] it was 0.11 to 0.46 µM (≈ 0.0612 to 0.256 µg/mL); in test [3], 0.03 to 0.056 µM (≈ 0.0167 to 0.0312 µg/mL). Besides, the “MIC RMP-R” value in test [1] (setting [4]) turned out to be 0.11 µM (≈ 0.0612 µg/mL). The “MIC OFX-R” value in test [3] amounted to 0.056 µM (≈ 0.0312 µg/mL).
Turning to `CCOC(=O)CC(=O)NCC(=O)N1CCN(c2ccc(N3CC(Cn4cc(C)nn4)OC3=O)cc2F)CC1` (stereo not drawn) [PH-150], the MIC in test [2], in test [1] and in test [3] was 2.9 µM (≈ 1.54 µg/mL) each time.
As for `Cc1cn(CC2CN(c3ccc(N4CCN(C(=O)CN)CC4)c(F)c3)C(=O)O2)nn1` (stereo not drawn) [PH-151], the MIC in test [2] was 11.6 µM (≈ 4.84 µg/mL); in test [1], 5.8 µM (≈ 2.42 µg/mL); in test [3], 11.6 µM (≈ 4.84 µg/mL).
With `CC(=O)NCC(=O)N1CCN(c2ccc(N3CC(Cn4ccnn4)OC3=O)cc2F)CC1` (stereo not drawn) [PH-165], the MIC in test [2] stood at 4.5 µM (≈ 2 µg/mL); in test [1], 6.7 µM (≈ 2.98 µg/mL); in test [3], 3.4 µM (≈ 1.51 µg/mL).
The corresponding values for `CCOC(=O)CC(=O)NCC(=O)N1CCN(c2ccc(N3CC(Cn4ccnn4)OC3=O)cc2F)CC1` (stereo not drawn) [PH-169] are 1.45 to 2.9 µM (≈ 0.75 to 1.5 µg/mL), 1.45 µM (≈ 0.75 µg/mL) and 1.45 µM (≈ 0.75 µg/mL).
The corresponding values for `NCC(=O)N1CCN(c2ccc(N3CC(Cn4ccnn4)OC3=O)cc2F)CC1` (stereo not drawn) [PH-172] are 7.2 µM (≈ 2.9 µg/mL), 3.6 µM (≈ 1.45 µg/mL) and 3.6 µM (≈ 1.45 µg/mL).
On to `Cc1cn(CC2CN(c3ccc(N4CCN(C(=O)CNC(=O)c5cc([N+](=O)[O-])cc([N+](=O)[O-])c5)CC4)c(F)c3)C(=O)O2)nn1` (stereo not drawn) [PH-181], for which the results for the MIC in test [2], in test [1] and in test [3] were 0.85 to 1.64 µM (≈ 0.52 to 1 µg/mL), 0.82 µM (≈ 0.501 µg/mL) and 0.82 µM (≈ 0.501 µg/mL), respectively.
Take `Cc1cn(CC2CN(c3ccc(N4CCN(C(=O)CNC(=O)C(Cl)Cl)CC4)c(F)c3)C(=O)O2)nn1` (stereo not drawn) [PH-182]: the MIC came out at 0.95 µM (≈ 0.502 µg/mL) in test [2], 0.95 µM (≈ 0.502 µg/mL) in test [1] and 0.47 µM (≈ 0.248 µg/mL) in test [3].
On to `Cc1cn(CC2CN(c3ccc(N4CCN(C(=O)CNC(=O)c5cccnc5)CC4)c(F)c3)C(=O)O2)nn1` (stereo not drawn) [PH-185], for which the results for the MIC in test [2], in test [1] and in test [3] were 2.9 µM (≈ 1.52 µg/mL), 5.7 µM (≈ 2.98 µg/mL) and 1.44 µM (≈ 0.752 µg/mL), respectively.
As for `O=C(NCC(=O)N1CCN(c2ccc(N3CC(Cn4ccnn4)OC3=O)cc2F)CC1)c1ccc([N+](=O)[O-])o1` (stereo not drawn) [PH-189], the MIC in test [2] is 0.056 to 0.11 µM (≈ 0.0304 to 0.0597 µg/mL). In test [2] (setting [4]), the “MIC INH-R” value lay in the range of 0.057 to 0.12 µM. Moreover, in test [3], the MIC fell in the range of 0.03 to 0.056 µM (≈ 0.0163 to 0.0304 µg/mL) and the “MIC OFX-R” value amounted to 0.03 µM (≈ 0.0163 µg/mL).
Regarding `O=C(NCC(=O)N1CCN(c2ccc(N3CC(Cn4ccnn4)OC3=O)cc2F)CC1)c1cc([N+](=O)[O-])cc([N+](=O)[O-])c1` (stereo not drawn) [PH-193], the MIC in test [2] is 0.42 µM (≈ 0.251 µg/mL); in test [1], 0.22 µM (≈ 0.131 µg/mL); in test [3], 0.052 µM (≈ 0.0311 µg/mL).
As for `O=C(NCC(=O)N1CCN(c2ccc(N3CC(Cn4ccnn4)OC3=O)cc2F)CC1)c1cccnc1` (stereo not drawn) [PH-195], the figures for the MIC in test [2], in test [1] and in test [3] were 2 µM (≈ 1.02 µg/mL), 0.98 µM (≈ 0.498 µg/mL) and 0.49 µM (≈ 0.249 µg/mL), respectively.
Take `CO[C@H]1/C=C/O[C@@]2(C)Oc3c(C)c(O)c4c(O)c(c(/C=N/N5CCN(C)CC5)c(O)c4c3C2=O)NC(=O)/C(C)=C\C=C\[C@H](C)[C@H](O)[C@@H](C)[C@@H](O)[C@@H](C)[C@H](OC(C)=O)[C@@H]1C` [RMP, Rifampicin, reference compound]: the MIC was 0.06 µM (≈ 0.0494 µg/mL) in test [2] and 0.95 µM (≈ 0.782 µg/mL) in test [3].

The record behind these values is paper PMC5748531, “Antimycobacterial Activities of N-Substituted-Glycinyl 1H-1,2,3-Triazolyl Oxazolidinones and Analytical Method Development and Validation for a Representative Compound” (Scientia Pharmaceutica, 2017).
